Reference: ChEMBL document CHEMBL6109153, “Development of Membrane-Targeting Osthole Derivatives Containing Pyridinium Quaternary Ammonium Moieties with Potent Anti-Methicillin-Resistant Staphylococcus aureus Properties” (J Med Chem, 2025)
In brackets after ≈: the same amount, converted by molar mass.

Columns and labels:
Staphylococcus aureus [1] = assay: Antibacterial activity against Staphylococcus aureus ATCC 29213 incubated for 16 to 20 hrs by broth microdilution method; type: functional; details: time 16-20 hrs
Staphylococcus aureus [2] = assay: Antibacterial activity against methicillin-resistant Staphylococcus aureus M11 incubated for 16 to 20 hrs by broth microdilution method; type: functional; details: time 16-20 hrs
Staphylococcus aureus [3] = assay: Antibacterial activity against methicillin-resistant Staphylococcus aureus M12 incubated for 16 to 20 hrs by broth microdilution method; type: functional; details: time 16-20 hrs
Staphylococcus aureus [4] = assay: Antibacterial activity against methicillin-resistant Staphylococcus aureus M13 incubated for 16 to 20 hrs by broth microdilution method; type: functional; details: time 16-20 hrs
Staphylococcus aureus [5] = assay: Antibacterial activity against methicillin-resistant Staphylococcus aureus M14 incubated for 16 to 20 hrs by broth microdilution method; type: functional; details: time 16-20 hrs
Staphylococcus aureus [6] = assay: Antibacterial activity against methicillin-resistant Staphylococcus aureus M16 incubated for 16 to 20 hrs by broth microdilution method; type: functional; details: time 16-20 hrs
Staphylococcus aureus [7] = assay: Antibacterial activity against methicillin-resistant Staphylococcus aureus M17 incubated for 16 to 20 hrs by broth microdilution method; type: functional; details: time 16-20 hrs
Staphylococcus aureus [8] = assay: Antibacterial activity against methicillin-resistant Staphylococcus aureus M20 incubated for 16 to 20 hrs by broth microdilution method; type: functional; details: time 16-20 hrs
Staphylococcus aureus [9] = assay: Antibacterial activity against methicillin-resistant Staphylococcus aureus M21 incubated for 16 to 20 hrs by broth microdilution method; type: functional; details: time 16-20 hrs
Staphylococcus aureus [10] = assay: Antibacterial activity against methicillin-resistant Staphylococcus aureus M22 incubated for 16 to 20 hrs by broth microdilution method; type: functional; details: time 16-20 hrs
Staphylococcus aureus [11] = assay: Antibacterial activity against methicillin-resistant Staphylococcus aureus M23 incubated for 16 to 20 hrs by broth microdilution method; type: functional; details: time 16-20 hrs
Escherichia coli = assay: Antibacterial activity against Escherichia coli ATCC 25922 incubated for 16 to 20 hrs by broth microdilution method; type: functional; details: time 16-20 hrs
[12] = Hemolytic activity against sheep erythrocytes; type: toxicity, cell-based, Ovis aries, Erythrocyte

CCCCCCNC(=O)C[n+]1ccc(SCCCOc2ccc3ccc(=O)oc3c2CC=C(C)C)cc1.[Br-]
MIC (Staphylococcus aureus [1]): 1 µg/mL | MIC (Staphylococcus aureus [2]): 2 µg/mL | MIC (Staphylococcus aureus [3]): 4 µg/mL | MIC (Staphylococcus aureus [4]): 4 µg/mL | MIC (Staphylococcus aureus [5]): 2 µg/mL | MIC (Staphylococcus aureus [6]): 4 µg/mL | MIC (Staphylococcus aureus [7]): 4 µg/mL | MIC (Staphylococcus aureus [8]): 2 µg/mL | MIC (Staphylococcus aureus [9]): 4 µg/mL | MIC (Staphylococcus aureus [10]): 4 µg/mL | MIC (Staphylococcus aureus [11]): 2 µg/mL | MIC (Escherichia coli): 64 µg/mL | HC50 [12]: > 160 µg/mL

CC(C)=CCc1c(OCCCSc2cc[n+](CC(=O)N(C(C)C)C(C)C)cc2)ccc2ccc(=O)oc12.[Br-]
MIC (Staphylococcus aureus [1]): 4 µg/mL | MIC (Staphylococcus aureus [2]): 2 µg/mL | MIC (Staphylococcus aureus [3]): 8 µg/mL | MIC (Staphylococcus aureus [4]): 8 µg/mL | MIC (Staphylococcus aureus [5]): 2 µg/mL | MIC (Staphylococcus aureus [6]): 4 µg/mL | MIC (Staphylococcus aureus [7]): 4 µg/mL | MIC (Staphylococcus aureus [8]): 2 µg/mL | MIC (Staphylococcus aureus [9]): 4 µg/mL | MIC (Staphylococcus aureus [10]): 4 µg/mL | MIC (Staphylococcus aureus [11]): 4 µg/mL | MIC (Escherichia coli): > 128 µg/mL | HC50 [12]: > 160 µg/mL

CC(C)=CCc1c(OCCCCCSc2cc[n+](CC(=O)N(CC(C)C)CC(C)C)cc2)ccc2ccc(=O)oc12.[Br-]
MIC (Staphylococcus aureus [1]): 1 µg/mL | MIC (Staphylococcus aureus [2]): 8 µg/mL | MIC (Staphylococcus aureus [3]): 8 µg/mL | MIC (Staphylococcus aureus [4]): 8 µg/mL | MIC (Staphylococcus aureus [5]): 8 µg/mL | MIC (Staphylococcus aureus [6]): 16 µg/mL | MIC (Staphylococcus aureus [7]): 2 µg/mL | MIC (Staphylococcus aureus [8]): 8 µg/mL | MIC (Staphylococcus aureus [9]): 2 µg/mL | MIC (Staphylococcus aureus [10]): 2 µg/mL | MIC (Staphylococcus aureus [11]): 8 µg/mL | MIC (Escherichia coli): > 128 µg/mL | HC50 [12]: > 160 µg/mL

CC(C)=CCc1c(OCCCCCSc2cc[n+](CC(=O)N3CCOCC3)cc2)ccc2ccc(=O)oc12.[Br-]
MIC (Staphylococcus aureus [1]): 32 µg/mL | MIC (Staphylococcus aureus [2]): 16 µg/mL | MIC (Staphylococcus aureus [3]): 32 µg/mL | MIC (Staphylococcus aureus [4]): 64 µg/mL | MIC (Staphylococcus aureus [5]): 16 µg/mL | MIC (Staphylococcus aureus [6]): 16 µg/mL | MIC (Staphylococcus aureus [7]): 32 µg/mL | MIC (Staphylococcus aureus [8]): 16 µg/mL | MIC (Staphylococcus aureus [9]): 32 µg/mL | MIC (Staphylococcus aureus [10]): 32 µg/mL | MIC (Staphylococcus aureus [11]): 32 µg/mL | MIC (Escherichia coli): > 128 µg/mL | HC50 [12]: > 160 µg/mL

C[C@@H](O)[C@H]1C(=O)N2C(C(=O)O)=C(S[C@@H]3CN[C@H](C(=O)N(C)C)C3)[C@H](C)[C@H]12 [MEROPENEM]
MIC (Escherichia coli): 0.063 µg/mL (≈ 0.164 µM)

CCCCCCNC(=O)C[n+]1ccc(SCCCCOc2ccc3ccc(=O)oc3c2CC=C(C)C)cc1.[Br-]
MIC (Staphylococcus aureus [1]): 1 µg/mL | MIC (Staphylococcus aureus [2]): 1 µg/mL | MIC (Staphylococcus aureus [3]): 2 µg/mL | MIC (Staphylococcus aureus [4]): 2 µg/mL | MIC (Staphylococcus aureus [5]): 1 µg/mL | MIC (Staphylococcus aureus [6]): 2 µg/mL | MIC (Staphylococcus aureus [7]): 1 µg/mL | MIC (Staphylococcus aureus [8]): 1 µg/mL | MIC (Staphylococcus aureus [9]): 2 µg/mL | MIC (Staphylococcus aureus [10]): 2 µg/mL | MIC (Staphylococcus aureus [11]): 2 µg/mL | MIC (Escherichia coli): 32 µg/mL | HC50 [12]: > 160 µg/mL

CCCCCCNC(=O)C[n+]1ccc(SCCCCCOc2ccc3ccc(=O)oc3c2CC=C(C)C)cc1.[Br-]
MIC (Staphylococcus aureus [1]): 64 µg/mL | MIC (Staphylococcus aureus [2]): 2 µg/mL | MIC (Staphylococcus aureus [3]): 2 µg/mL | MIC (Staphylococcus aureus [4]): 2 µg/mL | MIC (Staphylococcus aureus [5]): 2 µg/mL | MIC (Staphylococcus aureus [6]): 2 µg/mL | MIC (Staphylococcus aureus [7]): 2 µg/mL | MIC (Staphylococcus aureus [8]): 4 µg/mL | MIC (Staphylococcus aureus [9]): 2 µg/mL | MIC (Staphylococcus aureus [10]): 2 µg/mL | MIC (Staphylococcus aureus [11]): 2 µg/mL | MIC (Escherichia coli): > 128 µg/mL | HC50 [12]: > 160 µg/mL

CCCCNC(=O)C[n+]1ccc(SCCCOc2ccc3ccc(=O)oc3c2CC=C(C)C)cc1.[Br-]
MIC (Staphylococcus aureus [1]): 2 µg/mL | MIC (Staphylococcus aureus [2]): 4 µg/mL | MIC (Staphylococcus aureus [3]): 8 µg/mL | MIC (Staphylococcus aureus [4]): 8 µg/mL | MIC (Staphylococcus aureus [5]): 4 µg/mL | MIC (Staphylococcus aureus [6]): 4 µg/mL | MIC (Staphylococcus aureus [7]): 8 µg/mL | MIC (Staphylococcus aureus [8]): 4 µg/mL | MIC (Staphylococcus aureus [9]): 4 µg/mL | MIC (Staphylococcus aureus [10]): 4 µg/mL | MIC (Staphylococcus aureus [11]): 8 µg/mL | MIC (Escherichia coli): > 128 µg/mL | HC50 [12]: > 160 µg/mL

CCCCCNC(=O)C[n+]1ccc(SCCCOc2ccc3ccc(=O)oc3c2CC=C(C)C)cc1.[Br-]
MIC (Staphylococcus aureus [1]): 2 µg/mL | MIC (Staphylococcus aureus [2]): 2 µg/mL | MIC (Staphylococcus aureus [3]): 4 µg/mL | MIC (Staphylococcus aureus [4]): 8 µg/mL | MIC (Staphylococcus aureus [5]): 2 µg/mL | MIC (Staphylococcus aureus [6]): 4 µg/mL | MIC (Staphylococcus aureus [7]): 2 µg/mL | MIC (Staphylococcus aureus [8]): 2 µg/mL | MIC (Staphylococcus aureus [9]): 2 µg/mL | MIC (Staphylococcus aureus [10]): 2 µg/mL | MIC (Staphylococcus aureus [11]): 8 µg/mL | MIC (Escherichia coli): 64 µg/mL | HC50 [12]: > 160 µg/mL

CCCCN(CCCC)C(=O)C[n+]1ccc(SCCCCCOc2ccc3ccc(=O)oc3c2CC=C(C)C)cc1.[Br-]
MIC (Staphylococcus aureus [1]): 1 µg/mL | MIC (Staphylococcus aureus [2]): 0.5 µg/mL | MIC (Staphylococcus aureus [3]): 1 µg/mL | MIC (Staphylococcus aureus [4]): 1 µg/mL | MIC (Staphylococcus aureus [5]): 0.5 µg/mL | MIC (Staphylococcus aureus [6]): 1 µg/mL | MIC (Staphylococcus aureus [7]): 2 µg/mL | MIC (Staphylococcus aureus [8]): 0.5 µg/mL | MIC (Staphylococcus aureus [9]): 1 µg/mL | MIC (Staphylococcus aureus [10]): 1 µg/mL | MIC (Staphylococcus aureus [11]): 1 µg/mL | MIC (Escherichia coli): > 128 µg/mL | HC50 [12]: > 160 µg/mL

CC(C)=CCc1c(OCCCSc2cc[n+](CC(=O)N(CC(C)C)CC(C)C)cc2)ccc2ccc(=O)oc12.[Br-]
MIC (Staphylococcus aureus [1]): 2 µg/mL | MIC (Staphylococcus aureus [2]): 1 µg/mL | MIC (Staphylococcus aureus [3]): 4 µg/mL | MIC (Staphylococcus aureus [4]): 4 µg/mL | MIC (Staphylococcus aureus [5]): 2 µg/mL | MIC (Staphylococcus aureus [6]): 2 µg/mL | MIC (Staphylococcus aureus [7]): 4 µg/mL | MIC (Staphylococcus aureus [8]): 2 µg/mL | MIC (Staphylococcus aureus [9]): 2 µg/mL | MIC (Staphylococcus aureus [10]): 2 µg/mL | MIC (Staphylococcus aureus [11]): 2 µg/mL | MIC (Escherichia coli): > 128 µg/mL | HC50 [12]: > 160 µg/mL

CCCCNC(=O)C[n+]1ccc(SCCCCOc2ccc3ccc(=O)oc3c2CC=C(C)C)cc1.[Br-]
MIC (Staphylococcus aureus [1]): 8 µg/mL | MIC (Staphylococcus aureus [2]): 2 µg/mL | MIC (Staphylococcus aureus [3]): 4 µg/mL | MIC (Staphylococcus aureus [4]): 4 µg/mL | MIC (Staphylococcus aureus [5]): 2 µg/mL | MIC (Staphylococcus aureus [6]): 2 µg/mL | MIC (Staphylococcus aureus [7]): 4 µg/mL | MIC (Staphylococcus aureus [8]): 2 µg/mL | MIC (Staphylococcus aureus [9]): 4 µg/mL | MIC (Staphylococcus aureus [10]): 4 µg/mL | MIC (Staphylococcus aureus [11]): 4 µg/mL | MIC (Escherichia coli): > 128 µg/mL | HC50 [12]: > 160 µg/mL
